Article PMC5688156, “The natural product carolacton inhibits folate-dependent C1 metabolism by targeting FolD/MTHFD” (Nature Communications, 2017)
Like-named read-outs stand apart in the source and are kept apart here.

Key:
hsMTHFD2 = target: T1, hsMTHFD2 (Homo sapiens, UniProt P13995); test: hsMTHFD2 cyclohydrolase (CYH) enzyme assay; assay type: biochemical
T1 construct: His-tag (vector pHis-TEV) (cleaved yes); made in house; host or cells: E. coli BL21 (DE3)
T1 sequence (P13995 36-350): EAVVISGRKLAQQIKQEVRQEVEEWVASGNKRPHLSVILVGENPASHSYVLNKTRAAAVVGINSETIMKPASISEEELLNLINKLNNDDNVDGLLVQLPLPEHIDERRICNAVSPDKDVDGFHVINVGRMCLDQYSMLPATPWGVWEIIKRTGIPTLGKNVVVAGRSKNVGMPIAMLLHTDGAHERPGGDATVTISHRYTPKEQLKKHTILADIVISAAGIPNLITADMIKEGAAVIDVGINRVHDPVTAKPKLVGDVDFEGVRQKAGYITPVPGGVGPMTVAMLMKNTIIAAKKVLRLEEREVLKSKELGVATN
Procedure: (§1) (6R,S)-5,10-Methylene-5,6,7,8-tetrahydrofolic acid ((6R,S)-5,10-CH2-THF) calcium salt and (6R,S)-5,10-Methenyl-5,6,7,8-tetrahydrofolic acid ((6R,S)-5,10-CH=THF) chloride were purchased from Schircks Laboratories (Bauma, Switzerland) and used as substrates for FolD dehydrogenase and cyclohydrolase enzyme assays, respectively. Only the R-isomer, which accounts for 50% of (6R,S)-5,10-CH2-THF and (6R,S)-5,10-CH=THF, respectively, is used by the enzyme. (6R,S)-5,10-CH2-THF was dissolved in N2-spargeled basic buffer (50 mM Tris-HCl (pH 8.0), 100 mM β-mercaptoethanol) as described by Varshney et al.[25]. (6R,S)-5,10-CH=THF was dissolved in DMSO as a 100 mM stock solution.
Because FolD is a bifunctional enzyme, dehydrogenase and cyclohydrolase activities were determined for FolD enzyme kinetics, respectively. The dehydrogenase activity of FolD was assayed for its substrate 5,10-CH2-THF and cofactor NADP^+ (in the case of MTHFD2, NAD^+ was used as the cofactor) based on monitoring the formation of 5,10-CH=THF, while the cyclohydrolase activity of FolD was determined for its substrate 5,10-CH=THF by monitoring the hydrolysis of […]. The enzyme kinetics for the dehydrogenase activity of all FolDs except hsMTHFD1_DC were determined at 30 °C in 50 mM Tris-HCl (pH 7.5), 30 mM β-mercaptoethanol. The hsMTHFD1_DC dehydrogenase activity was measured in 25 mM MOPS (pH 7.3), 30 mM β-mercaptoethanol at 30 °C. […] To monitor the formation of 5,10-CH=THF, the absorbance of the reaction mixture was monitored at 350 nm in micro UV cuvettes (BRAND, Essex, Connecticut, USA). The concentration of 5,10-CH=THF produced in the reaction was determined using an extinction co-efficient of 0.0249 μM^−1 cm^−1. […] The consumption of 5,10-CH=THF was measured by recording the absorbance of the reactions at 355 nm using the TECAN Infinite 200 PRO equipped with a monochromator. […] The inhibition constants (K i) of carolacton on FolD were determined by measuring the apparent K m when adding certain amounts of carolacton to the enzyme reactions. […]

spFolD = target: T2, spFolD (Streptococcus pneumoniae serotype 4, UniProt Q97RI9); test: spFolD dehydrogenase (DH) enzyme assay; assay type: biochemical, S. pneumoniae
T2 construct: His-tag (TEV-cleavable, vector pHis-TEV); made in house; host or cells: E. coli BL21 (DE3)
T2 sequence (Q97RI9 whole entry): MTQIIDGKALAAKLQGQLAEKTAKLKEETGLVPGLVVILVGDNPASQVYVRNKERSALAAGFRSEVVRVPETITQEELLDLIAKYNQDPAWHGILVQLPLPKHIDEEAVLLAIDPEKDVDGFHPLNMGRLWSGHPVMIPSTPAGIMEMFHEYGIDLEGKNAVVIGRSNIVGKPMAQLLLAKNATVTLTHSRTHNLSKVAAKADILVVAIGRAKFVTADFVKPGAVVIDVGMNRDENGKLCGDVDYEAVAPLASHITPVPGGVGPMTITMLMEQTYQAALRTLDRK
Procedure: as §1
Because FolD is a bifunctional enzyme, dehydrogenase and cyclohydrolase activities were determined for FolD enzyme kinetics, respectively. The dehydrogenase activity of FolD was assayed for its substrate 5,10-CH2-THF and cofactor NADP^+ (in the case of MTHFD2, NAD^+ was used as the cofactor) based on monitoring the formation of 5,10-CH=THF, while the cyclohydrolase activity of FolD was determined for its substrate 5,10-CH=THF by monitoring the hydrolysis of […]. The enzyme kinetics for the dehydrogenase activity of all FolDs except hsMTHFD1_DC were determined at 30 °C in 50 mM Tris-HCl (pH 7.5), 30 mM β-mercaptoethanol. The hsMTHFD1_DC dehydrogenase activity was measured in 25 mM MOPS (pH 7.3), 30 mM β-mercaptoethanol at 30 °C. To measure the enzyme kinetic constants for 5,10-CH2-THF, for example in the case of ecFolD, the NADP concentration was fixed at 1 mM and the concentration of 5,10-CH2-THF varied from 5 to 1500 μM (R-isomer). Similarly, to measure the kinetic constants of ecFolD for NADP^+, the concentration of 5,10-CH2-THF (R-isomer) was fixed at 1 mM and the concentration of NADP^+ varied from 10 to 1500 μM. For different FolDs, the varied concentration range of substrates could be different. […] To monitor the formation of 5,10-CH=THF, the absorbance of the reaction mixture was monitored at 350 nm in micro UV cuvettes (BRAND, Essex, Connecticut, USA). The concentration of 5,10-CH=THF produced in the reaction was determined using an extinction co-efficient of 0.0249 μM^−1 cm^−1. […] The consumption of 5,10-CH=THF was measured by recording the absorbance of the reactions at 355 nm using the TECAN Infinite 200 PRO equipped with a monochromator. […] The inhibition constants (K i) of carolacton on FolD were determined by measuring the apparent K m when adding certain amounts of carolacton to the enzyme reactions. […] To compare the inhibition effects of carolacton between the different FolDs, the half maximal inhibitory concentration (IC50) of carolacton on the same amount of enzyme was determined for FolDs involved in this study. […]

`CO[C@H](CC(=O)O)[C@@H](C)C(=O)[C@H](C)/C=C(\C)[C@H]1OC(=O)[C@H](O)[C@H](O)/C=C/[C@H](C)CCC[C@@H]1C` [carolacton] was tested, and the IC50 (hsMTHFD2; 5 nM enzyme, read-out: IC50, carolacton inhibition on CYH activity) was 85.7 nM, the IC80 (hsMTHFD2; 5 nM enzyme, read-out: IC80, carolacton inhibition on CYH activity) was 202 nM and the Ki (hsMTHFD2; vs 5,10-CH=THF, read-out: Ki (5,10-CH=THF), carolacton inhibition on CYH activity) was 12.7 nM. For the same molecule, the IC50 (spFolD; 10 nM enzyme, read-out: IC50, carolacton inhibition on DH activity) was 36.8 nM, the IC80 (spFolD; 10 nM enzyme, read-out: IC80, carolacton inhibition on DH activity) was 169 nM and the Ki (spFolD; vs 5,10-CH2-THF, read-out: Ki (5,10-CH2-THF), carolacton inhibition on DH activity) was 42.2 nM. For the same molecule, the Ki (spFolD; vs NADP+, read-out: Ki (NADP+), carolacton inhibition on DH activity) was 34.2 nM.
